From patent US11969425B2, “Inhibitor of indoleamine-2,3-dioxygenase (IDO)” (InventisBio LLC, priority 2016, dated 2024) come the findings set out here.

The test system of series [1] is pooled human hepatocytes. Nature of the series: Human hepatocyte clearance study. Format: in vitro ADME. Conditions: pooled human hepatocytes, 120 min. The method, then: (§1) The in vitro human hepatocyte clearance of compounds described here was studied using pooled human hepatocytes purchased from BioreclamationIVT (Westbury, NY, Cat #X008001, Lot #TQJ). The assay was conducted according to manufacture's instruction. Briefly, 10 mM stock solutions of test compounds and positive control (Verapamil) were prepared in 100% DMSO. Thawing media (50 mL) used in the study consists of: 31 mLWilliams E medium (GIBCO Cat #12551-032); 15 mL isotonic percoll (GE Healthcare Cat #17-0891-09); 500 uL 100XGlutaMax (GIBCO Cat #35050); 750 uL HEPES (GIBCO Cat #15630-080); 2.5 mL FBS (Corning Cat #35-076*CVR); 50 uL human insulin (GIBCO Cat #12585-014) and 5 uL dexamethasone (NICPBP). Incubation media is made of Williams E medium supplemented with 1xGlutaMax. Both thawing medium and incubation medium (serum-free) were placed in a 37° C. water bath for at least 15 minutes prior to use. Compound stock solutions were diluted to 100 μM by combining 198 μL of 50% acetonitrile/50% water and 2 μL of 10 mM stock solution. Verapamil was use as positive control in the assay. Vials of cryopreserved hepatocytes were removed from storage and thawed in a 37° C. water bath with gentle shaking. Contents of the vial were poured into the 50 mL thawing medium conical tube. Vials were centrifuged at 100 g for 10 minutes at room temperature. Thawing medium was aspirated and hepatocytes were re-suspended with serum-free incubation medium to yield ˜1.5×10^6 cells/mL. Hepatocyte viability and density were counted using a Trypan Blue exclusion, and then cells were diluted with serum-free incubation medium to a working cell density of 0.5×10^6 viable cells/mL. Then, a portion of the hepatocytes at 0.5×10^6 viable cells/mL was boiled for 5 minutes prior to adding to the plate as negative control to eliminate the enzymatic activity so that little or no substrate turnover should be observed. The boiled hepatocytes were used to prepare negative samples. Aliquots of 198 μL hepatocytes were dispensed into each well of a 96-well non-coated plate. The plate was placed in the incubator on an orbital shaker at 500 rpm for approximately 10 minutes. Aliquots of 2 μL of the 100 μM test compound or positive control were added into respective wells of the non-coated 96-well plate to start the reaction. This assay was performed in duplicate. The plate was incubated in the incubator on an orbital shaker at 500 rpm for the designated time points. Twenty-five microliter of contents were transferred and mixed with 6 volumes (150 μL) of cold acetonitrile with IS (200 nM imipramine, 200 nM labetalol and 200 nM diclofenac) to terminate the reaction at time points of 0, 15, 30, 60, 90 and 120 minutes. Samples were centrifuged at 3,220 g for 25 minutes and aliquots of 150 μL of the supernatants were used for LC-MS/MS analysis. For data analysis, all calculations were carried out using Microsoft Excel. Peak areas were determined from extracted ion chromatograms. The in vitro half-life (t1/2) of parent compound was determined by regression analysis of the percent parent disappearance vs. time curve. The in vitro half-life (in vitro t1/2) was determined from the slope value: in vitro t1/2=0.693/k. […] Scaling factors for in vivo intrinsic clearance prediction using human hepatocytes are listed as: liver weight (g liver/kg body weight): 25.7; hepatocyte concentration (10^6 cells/g liver): 99; scaling factor: 2544.3.

A short description of series [2]: Human hepatocyte clearance study. Format: in vitro ADME. To be noted: pooled cryopreserved human hepatocytes (suspension); for CLint scaled at 1 µM: human, scaled up from in vitro t1/2, scaling factor 2544.3, read-out: Human Scale-up Clint; for hepatocyte CLint at 1 µM / half-life at 1 µM: pooled human hepatocytes; for hepatocyte CLint at 1 µM: read-out: Human In vitro Clint (μL/min/10^6 cells); for half-life at 1 µM: read-out: Human In vitro T1/2. As for the experimental part: as §1

Series [3] has as its system kynurenine production in HeLa cells. Nature of the series: Inhibition of kynurenine production in HeLa cells. The series is classed as cell-based, human. Conditions: Homo sapiens, HeLa, 48 h, HeLa cells, human IFN-γ 50 ng/mL, kynurenine read at 480 nm, read-out: IC50. The method, then: The effect of compounds described herein on the inhibition of kynurenine production in HeLa cells (derived from human cervical cancer) was determined. HeLa cells were seeded into a 96-well culture plate at a density of 5×10^3 per well in RPMI1640/phenol red free media (from GIBCO) with 2 mM L-glutamine and 10% fetal bovine serum (FBS, from GIBCO) and grown overnight in a 37° C. incubator with 5% CO2. Twenty-four hours later, human IFN-γ (from GIBCO) (final concentration 50 ng/mL) and test compound solutions (serially diluted to different wells) were added to each well with a final volume of 200 uL per well. Forty-eight hours after incubation with compounds, 140 uL supernatant was taken from each well and was transferred to a new 96-well plate. Ten microliters of 6.1 N trichloroacetic acid were added into each well, mixed and incubated at 50° C. for 30 minutes. The reaction mixture was then centrifuged for 10 minutes at 2500 rpm and 100 uL of the supernatant per well was transferred to another 96 well plate and mixed with 100 uL of 2% (w/v) p-dimethylaminobenzaldehyde in acetic acid. The yellow color derived from kynurenine was measured at 480 nm using a SPECTRAmax i3 reader. Each compound concentration was done in triplicates and compound IC50 value was calculated using nonlinear regression using Graphpad Prism 5.0.
The inhibitory activity of representative compounds described herein, compared with another IDO inhibitor, such as INCB-24360, Controls 1 and 2 are shown in Table 2.

Molecules are shown by their SMILES.

For `CC(C)CN(CC(C)C)c1ccc(C2(C(=O)O)CCC2)cc1NC(=O)Nc1ccc(F)cc1F` [Compound 16], the “Human Hepatocyte Remaining Percentage @ 120 min” value in series [1] was found to be 101. Also, in series [2], the CLint scaled at 1 µM amounted to 0.108 L/h/kg, the hepatocyte CLint at 1 µM is 0.7 µL/min/1e6 cells and the half-life at 1 µM amounted to 31.4 h. Moreover, in series [3], the concentration for half-maximal inhibition (IC50) (as a rule, the concentration at which inhibition is half-maximal) worked out at 1.5 nM.

Turning to `CC(C)CN(c1ccc(C2(C(=O)O)CCC2)cc1NC(=O)Nc1ccc(F)cc1F)C1CCOCC1` [Compound 25], the “Human Hepatocyte Remaining Percentage @ 120 min” value in series [1] came to 89. Besides, in series [2], the CLint scaled at 1 µM is 0.234 L/h/kg, the hepatocyte CLint at 1 µM was determined as 1.5 µL/min/1e6 cells and the half-life at 1 µM came to 15 h. The IC50 in series [3] worked out at 0.6 nM.

In the case of `CC(C)CN(CC(C)C)c1ccc(C2(C(=O)O)CCCC2)cc1Nc1ccccc1` [Compound 48], the “Human Hepatocyte Remaining Percentage @ 120 min” value in series [1] worked out at 105. For the same compound, in series [2], the CLint scaled at 1 µM was 0.12 L/h/kg, the hepatocyte CLint at 1 µM is 0.8 µL/min/1e6 cells and the half-life at 1 µM is 28.9 h. For the same compound, the IC50 in series [3] was 8.4 nM.

For `CCOc1ncc(Nc2cc(C3(C(=O)O)CCC3)ccc2N(CC(C)C)C2CCOCC2)cn1` [Compound 75], the “Human Hepatocyte Remaining Percentage @ 120 min” value in series [1] was found to be 88. In series [2], the CLint scaled at 1 µM was 0.396 L/h/kg, the hepatocyte CLint at 1 µM came to 2.6 µL/min/1e6 cells and the half-life at 1 µM turned out to be 8.9 h. Moreover, the IC50 in series [3] turned out to be 0.3 nM.

As for `CC(C)CN(CC(C)C)c1ncc(C2(C(=O)O)CCC2)cc1Nc1ccc(Cl)cc1` [Compound 84], the “Human Hepatocyte Remaining Percentage @ 120 min” value in series [1] is given as 80. In series [2], the CLint scaled at 1 µM was determined as 0.342 L/h/kg, the hepatocyte CLint at 1 µM turned out to be 2.2 µL/min/1e6 cells and the half-life at 1 µM was 10.4 h. The IC50 in series [3] was 0.4 nM.

On to `CC(C)CN(c1ccc(C2(C(=O)O)CCC2)cc1Nc1ccc(C#N)cn1)C1CCOCC1` [Compound 86], for which, in series [1], the “Human Hepatocyte Remaining Percentage @ 120 min” value is 75. Besides, in series [2], the CLint scaled at 1 µM is 0.78 L/h/kg, the hepatocyte CLint at 1 µM was found to be 5.2 µL/min/1e6 cells and the half-life at 1 µM was found to be 4.47 h. In addition, the IC50 in series [3] is 0.3 nM.

Consider `CC(C)CN(c1ncc(C2(C(=O)O)CCC2)cc1Nc1ccc(C#N)cc1)C1CCOCC1` [Compound 91], for which the “Human Hepatocyte Remaining Percentage @ 120 min” value in series [1] is given as 92. Moreover, in series [2], the CLint scaled at 1 µM stood at 0.198 L/h/kg, the hepatocyte CLint at 1 µM is 1.3 µL/min/1e6 cells and the half-life at 1 µM worked out at 17.7 h. Moreover, in series [3], the IC50 came to 0.3 nM.

As to `CC(C)CN(CC(C)C)c1ccc(C2(C(=O)O)CCC2)cc1Nc1ccc(Cl)cn1` [Compound 105], the “Human Hepatocyte Remaining Percentage @ 120 min” value in series [1] is given as 81. Moreover, in series [2], the CLint scaled at 1 µM came to 0.78 L/h/kg, the hepatocyte CLint at 1 µM came to 5.1 µL/min/1e6 cells and the half-life at 1 µM was 4.58 h. In addition, the IC50 in series [3] is 0.3 nM.

Regarding `CC(C)CN(CC(C)C)c1ncc(C2(C(=O)O)CCC2)cc1Nc1ccc(C#N)cn1` [Compound 106], the “Human Hepatocyte Remaining Percentage @ 120 min” value in series [1] came to 69. Further, in series [2], the CLint scaled at 1 µM is 1.08 L/h/kg, the hepatocyte CLint at 1 µM came out at 7 µL/min/1e6 cells and the half-life at 1 µM came out at 3.3 h. In addition, in series [3], the IC50 came out at 0.4 nM.

With `CC(C)CN(CC(C)C)c1ncc(C2(C(=O)O)CCC2)cc1Nc1ccc(Cl)cn1` [Compound 107], in series [1], the “Human Hepatocyte Remaining Percentage @ 120 min” value was 76. In series [2], the CLint scaled at 1 µM was 0.84 L/h/kg, the hepatocyte CLint at 1 µM turned out to be 5.5 µL/min/1e6 cells and the half-life at 1 µM amounted to 4.2 h. In series [3], the IC50 is 0.4 nM.

Consider `CC(C)N(CC1CC1)c1ncc(C2(C(=O)O)CCC2)cc1Nc1ccc(C#N)cn1` [Compound 110], for which the “Human Hepatocyte Remaining Percentage @ 120 min” value in series [1] is recorded as 71. For the same compound, in series [2], the CLint scaled at 1 µM is 0.96 L/h/kg, the hepatocyte CLint at 1 µM turned out to be 6.4 µL/min/1e6 cells and the half-life at 1 µM was found to be 3.6 h. Further, in series [3], the IC50 was 1 nM.

In the case of `CC(C)N(CC1CC1)c1ncc(C2(C(=O)O)CCC2)cc1Nc1ccc(Cl)cn1` [Compound 111], the “Human Hepatocyte Remaining Percentage @ 120 min” value in series [1] amounted to 63. In series [2], the CLint scaled at 1 µM stood at 1.2 L/h/kg, the hepatocyte CLint at 1 µM turned out to be 7.7 µL/min/1e6 cells and the half-life at 1 µM was found to be 2.98 h. Also, in series [3], the IC50 came out at 0.8 nM.

For `CCN(c1ccc(C2(C(=O)O)CCC2)cc1Nc1ccc(Cl)cn1)C1CCOCC1` [Compound 115], in series [1], the “Human Hepatocyte Remaining Percentage @ 120 min” value is given as 83. Moreover, in series [2], the CLint scaled at 1 µM stood at 0.558 L/h/kg, the hepatocyte CLint at 1 µM was found to be 3.6 µL/min/1e6 cells and the half-life at 1 µM came to 6.35 h. Further, the IC50 in series [3] was 0.1 nM.

As to `CCOc1ncc(Nc2cc(C3(C(=O)O)CCC3)ccc2N(CC)C2CCOCC2)cn1` [Compound 117], the “Human Hepatocyte Remaining Percentage @ 120 min” value in series [1] is reported as 93. In addition, in series [2], the CLint scaled at 1 µM stood at 0.102 L/h/kg, the hepatocyte CLint at 1 µM was 0.7 µL/min/1e6 cells and the half-life at 1 µM came to 35.4 h. Also, the IC50 in series [3] is 0.9 nM.

With `CCN(c1ccc(C2(C(=O)O)CCC2)cc1Nc1ccc(C#N)cn1)C1CCOCC1` [Compound 118], the “Human Hepatocyte Remaining Percentage @ 120 min” value in series [1] is given as 85. In series [2], the CLint scaled at 1 µM turned out to be 0.51 L/h/kg, the hepatocyte CLint at 1 µM came to 3.3 µL/min/1e6 cells and the half-life at 1 µM was determined as 6.93 h. Further, in series [3], the IC50 was 0.2 nM.

With `CCN(c1ncc(C2(C(=O)O)CCC2)cc1Nc1ccc(Cl)cn1)C1CCOCC1` [Compound 123], the “Human Hepatocyte Remaining Percentage @ 120 min” value in series [1] is recorded as 100. In series [2], the CLint scaled at 1 µM stood at 0.222 L/h/kg, the hepatocyte CLint at 1 µM stood at 1.4 µL/min/1e6 cells and the half-life at 1 µM amounted to 16.1 h. Also, in series [3], the IC50 turned out to be 0.3 nM.

As for `CCN(c1ncc(C2(C(=O)O)CCC2)cc1Nc1ccc(C#N)cc1)C1CCOCC1` [Compound 125], the “Human Hepatocyte Remaining Percentage @ 120 min” value in series [1] amounted to 97. Further, in series [2], the CLint scaled at 1 µM is 0.132 L/h/kg, the hepatocyte CLint at 1 µM came to 0.9 µL/min/1e6 cells and the half-life at 1 µM is 26.6 h. Besides, the IC50 in series [3] stood at 0.5 nM.

`CC(C)CN(CC(C)C)c1ccc(C(CC(=O)O)C(F)(F)F)cc1NC(=O)Nc1ccc(F)cc1F` (stereo not drawn) [Control 1, 3-(3-(3-(2,4-difluorophenyl)ureido)-4-(diisobutylamino)phenyl)-4,4,4-trifluorobutanoic acid, reference compound]: the “Human Hepatocyte Remaining Percentage @ 120 min” value in series [1] came out at 76. Moreover, in series [2], the CLint scaled at 1 µM came out at 0.66 L/h/kg, the hepatocyte CLint at 1 µM is 4.1 µL/min/1e6 cells and the half-life at 1 µM worked out at 5.6 h. In series [3], the IC50 came out at 0.8 nM.
